# Assay results reported in ChEMBL document CHEMBL2449286, “Structure-activity data for a series of P-glycoprotein inhibitors (Supplementary Data to CHEMBL1142990)”.
# Molecular target: ATP-dependent translocase ABCB1 (Homo sapiens, UniProt P08183)
# Sequence (P08183 whole entry): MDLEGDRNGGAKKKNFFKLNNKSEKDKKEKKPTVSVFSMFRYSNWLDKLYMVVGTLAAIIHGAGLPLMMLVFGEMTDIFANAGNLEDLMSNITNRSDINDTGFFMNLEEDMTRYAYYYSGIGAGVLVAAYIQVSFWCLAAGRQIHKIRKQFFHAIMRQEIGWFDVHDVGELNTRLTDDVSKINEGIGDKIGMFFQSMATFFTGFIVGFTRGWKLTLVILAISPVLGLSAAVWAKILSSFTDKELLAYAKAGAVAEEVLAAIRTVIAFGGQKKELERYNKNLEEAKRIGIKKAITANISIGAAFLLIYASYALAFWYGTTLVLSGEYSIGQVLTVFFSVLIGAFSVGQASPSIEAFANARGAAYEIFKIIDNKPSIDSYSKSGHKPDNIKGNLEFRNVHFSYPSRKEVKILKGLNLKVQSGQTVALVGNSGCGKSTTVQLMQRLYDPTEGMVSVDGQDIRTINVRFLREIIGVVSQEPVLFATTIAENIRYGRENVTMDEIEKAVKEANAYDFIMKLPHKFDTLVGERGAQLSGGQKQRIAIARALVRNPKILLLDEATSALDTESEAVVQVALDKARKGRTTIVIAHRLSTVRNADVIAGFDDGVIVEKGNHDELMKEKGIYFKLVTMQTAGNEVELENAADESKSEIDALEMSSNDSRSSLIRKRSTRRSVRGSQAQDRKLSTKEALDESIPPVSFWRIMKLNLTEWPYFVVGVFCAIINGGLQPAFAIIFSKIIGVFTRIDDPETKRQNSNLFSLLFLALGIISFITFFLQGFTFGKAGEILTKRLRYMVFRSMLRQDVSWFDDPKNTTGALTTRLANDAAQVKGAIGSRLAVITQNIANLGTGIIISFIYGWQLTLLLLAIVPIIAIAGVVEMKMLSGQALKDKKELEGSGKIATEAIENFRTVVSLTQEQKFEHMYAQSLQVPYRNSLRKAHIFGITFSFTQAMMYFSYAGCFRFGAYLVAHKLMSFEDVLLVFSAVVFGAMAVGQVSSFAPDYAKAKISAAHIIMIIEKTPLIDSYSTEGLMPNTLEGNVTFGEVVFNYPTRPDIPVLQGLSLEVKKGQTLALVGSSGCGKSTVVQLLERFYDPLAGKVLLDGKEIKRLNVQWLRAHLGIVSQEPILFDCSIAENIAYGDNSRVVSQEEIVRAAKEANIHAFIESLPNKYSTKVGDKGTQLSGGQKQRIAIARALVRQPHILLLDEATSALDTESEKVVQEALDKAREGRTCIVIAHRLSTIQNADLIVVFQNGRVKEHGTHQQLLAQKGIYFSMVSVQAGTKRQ
row,EC50 [µM],SMILES
1,0.257,O=C(CCc1ccccc1)c1ccccc1OC[C@H](O)CN1CCC(Cc2ccccc2)CC1
2,1.7,O[C@H](COc1ccccc1[C@@H](O)CCc1ccccc1)CN1CCCCC1
3,0.871,O[C@@H](COc1ccccc1[C@@H](O)CCc1ccccc1)CN1CCCCC1
4,1.51,O[C@H](COc1ccccc1[C@H](O)CCc1ccccc1)CN1CCCCC1
5,0.851,O[C@@H](COc1ccccc1[C@H](O)CCc1ccccc1)CN1CCCCC1
6,0.646,OC(CN1CCCCC1)C1Oc2ccccc2C1CCc1ccccc1 (stereo not given)
7,0.158,O=C(CCc1cccc2ccccc12)c1cccc(OCC(O)CN2CCN(c3ccc(F)cc3)CC2)c1 (stereo not given)
8,0.0708,Cc1ccccc1N1CCN(CC(O)COc2cccc(C(=O)CCc3cccc4ccccc34)c2)CC1 (stereo not given)
9,776,CNC1c2cc(C#N)ccc2OC(C)(C)C1O (stereo not given)
10,75.9,CC1(C)Oc2ccc(C#N)cc2C(NCc2ccccc2)C1O (stereo not given)
11,1700,CN[C@@H]1c2cc(C#N)ccc2OC(C)(C)[C@H]1O
12,58.9,CC1(C)Oc2ccc(C#N)cc2[C@@H](NCc2ccccc2)[C@@H]1O
13,1.35,CC(C)[C@@H](N[C@H]1c2ccccc2OC(C)(C)[C@@H]1O)C(=O)OC(C)(C)C
14,4.68,CC(C)[C@@H](N[C@@H]1c2cc(C#N)ccc2OC(C)(C)[C@H]1O)C(=O)OC(C)(C)C
15,0.955,CC(C)[C@@H](C(=O)OC(C)(C)C)N(C)[C@@H]1c2cc(C#N)ccc2OC(C)(C)[C@H]1O
16,1.35,CC(C)[C@@H](C(=O)OC(C)(C)C)N(C)[C@H]1c2cc(C#N)ccc2OC(C)(C)[C@@H]1O
17,1,CC(C)[C@H](C(=O)OC(C)(C)C)N(C)[C@@H]1c2cc(C#N)ccc2OC(C)(C)[C@H]1O
18,29.5,CC(NC1c2cc(C#N)ccc2OC(C)(C)C1O)C(=O)OC(C)(C)C (stereo not given)
19,14.5,C[C@H](N[C@H]1c2cc(C#N)ccc2OC(C)(C)[C@@H]1O)C(=O)OC(C)(C)C
20,3.72,C[C@@H](C(=O)OC(C)(C)C)N(C)[C@H]1c2cc(C#N)ccc2OC(C)(C)[C@@H]1O
21,3.98,C[C@@H](C(=O)OC(C)(C)C)N(C)[C@@H]1c2cc(C#N)ccc2OC(C)(C)[C@H]1O
22,15.5,CC(C)[C@@H]1N[C@@H]2c3cc(C#N)ccc3OC(C)(C)[C@H]2OC1=O
23,58.9,CC(C)[C@@H]1N[C@H]2c3cc(C#N)ccc3OC(C)(C)[C@@H]2OC1=O
24,9.55,CC(C)[C@H]1N[C@H]2c3cc(C#N)ccc3OC(C)(C)[C@@H]2OC1=O

row,EC50 [µM],SMILES
1,77.6,C[C@@H]1N[C@H]2c3cc(C#N)ccc3OC(C)(C)[C@@H]2OC1=O
2,28.8,C[C@H]1C(=O)O[C@@H]2[C@H](c3cc(C#N)ccc3OC2(C)C)N1C
3,1230,C[C@@H]1N[C@@H]2c3cc(C#N)ccc3OC(C)(C)[C@H]2OC1=O
4,47.9,C[C@H]1C(=O)O[C@H]2[C@@H](c3cc(C#N)ccc3OC2(C)C)N1C
5,47.9,CC(C)[C@H]1C(=O)O[C@H]2[C@@H](c3cc(C#N)ccc3OC2(C)C)N1C
6,79.4,CC(C)[C@@H]1C(=O)O[C@H]2[C@@H](c3cc(C#N)ccc3OC2(C)C)N1C
7,27.5,CC(C)[C@@H]1C(=O)O[C@@H]2[C@H](c3cc(C#N)ccc3OC2(C)C)N1C
8,16.6,CC(C)[C@H]1C(=O)O[C@@H]2[C@H](c3cc(C#N)ccc3OC2(C)C)N1C
9,0.776,CC(C)(C)OC(=O)C(Cc1ccccc1)N[C@H]1c2cc(C#N)ccc2OC(C)(C)[C@@H]1O (stereo not given in full)
10,0.55,CC(C)(C)OC(=O)C(Cc1ccccc1)N[C@@H]1c2cc(C#N)ccc2OC(C)(C)[C@H]1O (stereo not given in full)
11,257,CC1(C)Oc2ccc(C#N)cc2[C@@H]2NC(Cc3ccccc3)C(=O)O[C@H]21 (stereo not given in full)
12,2.69,CC1(C)Oc2ccc(C#N)cc2[C@H]2N[C@@H](Cc3ccccc3)C(=O)O[C@@H]21
13,102,CC(C)[C@@H](CO)N[C@H]1c2cc(C#N)ccc2OC(C)(C)[C@@H]1O
14,53.7,CC(C)[C@@H](CO)N[C@@H]1c2cc(C#N)ccc2OC(C)(C)[C@H]1O
15,5.5,CC(C)[C@@H](CO)N(C)[C@@H]1c2cc(C#N)ccc2OC(C)(C)[C@H]1O
16,6.92,CC(C)C(CO)N(C)[C@H]1c2cc(C#N)ccc2OC(C)(C)[C@@H]1O (stereo not given in full)
17,2.69,CC(C)[C@H](N[C@H]1c2cc(C#N)ccc2OC(C)(C)[C@@H]1O)C(=O)O
18,4.79,CC(C)[C@H](N[C@@H]1c2cc(C#N)ccc2OC(C)(C)[C@H]1O)C(=O)O
19,45.7,C[C@H](N[C@@H]1c2cc(C#N)ccc2OC(C)(C)[C@H]1O)C(=O)OC(C)(C)C
20,0.912,CCN(CC)C[C@@H](O)COc1ccccc1C(=O)CCc1ccccc1
21,0.603,O=C(CCc1ccccc1)c1ccccc1OC[C@H](O)CN1CCCCC1
22,0.38,CC(C)N(C[C@@H](O)COc1ccccc1C(=O)CCc1ccccc1)C(C)C
23,14.5,CCC(=O)c1ccccc1OC[C@H](O)CN1CCCCC1
24,31.6,CC(=O)c1ccccc1OC[C@H](O)CN1CCCCC1

row,EC50 [µM],SMILES
1,0.617,O=C(CCc1ccccc1)c1ccccc1OC[C@H](O)CN1CCN(c2ccccc2)CC1
2,0.229,COc1ccccc1N1CCN(C[C@@H](O)COc2ccccc2C(=O)CCc2ccccc2)CC1
3,0.676,COc1cccc(N2CCN(C[C@@H](O)COc3ccccc3C(=O)CCc3ccccc3)CC2)c1
4,0.257,COc1ccc(N2CCN(C[C@@H](O)COc3ccccc3C(=O)CCc3ccccc3)CC2)cc1
5,0.0269,Cc1ccccc1N1CCN(C[C@@H](O)COc2ccccc2C(=O)CCc2ccccc2)CC1
6,0.661,O=C(CCc1ccccc1)c1ccccc1OC[C@H](O)CN1CCN(Cc2ccccc2)CC1
7,0.0708,O=C(CCc1ccccc1)c1ccccc1OC[C@H](O)CN1CCN(c2ccc(F)cc2)CC1
8,209,CCC(=O)c1ccccc1OC[C@H](O)CN1CCOCC1
9,2.45,CN(C)C[C@@H](O)COc1ccccc1C(=O)CCc1ccccc1
10,67.6,CC(=O)c1ccccc1OC[C@H](O)CN1CCOCC1
11,0.417,CCCN(C)C[C@@H](O)COc1ccccc1C(=O)CCc1ccccc1
12,2.34,CCN(CC)C[C@@H](O)COc1ccccc1C(=O)c1ccccc1
13,0.316,O=C(/C=C/c1ccccc1)c1ccccc1OC[C@H](O)CN1CCCCC1
14,3.63,O=C(CCc1ccccc1)c1ccccc1OC[C@H](O)CN1CCOCC1
15,0.977,O=C(CCc1ccccc1)c1ccc(OC[C@H](O)CN2CCCCC2)cc1
16,0.174,CO[C@H](CCc1ccccc1)c1ccccc1OC[C@H](O)CN1CCCCC1
17,11.5,CCCNC[C@@H](O)c1oc2ccccc2c1CC
18,0.178,COc1ccccc1N1CCN(C[C@@H](O)c2oc3ccccc3c2CCc2ccccc2)CC1
19,3.02,CCCNC[C@@H](O)COc1ccc(O)cc1C(=O)CCc1ccccc1
20,2.51,O=C(CCc1ccccc1)c1ccc(OC[C@H](O)CN2CCN(c3ccc(F)cc3)CC2)cc1
21,0.427,O=C(CCc1ccccc1)c1cccc(OC[C@H](O)CN2CCCCC2)c1
22,6.92,O=C(CCc1ccccc1)c1ccc(OC[C@H](O)CN2CCOCC2)cc1
23,0.676,O[C@@H](COc1ccccc1[C@H](O)CCc1ccccc1)CN1CCN(c2ccc(F)cc2)CC1
24,0.224,CO[C@H](CCc1ccccc1)c1ccccc1OC[C@H](O)CN1CCN(c2ccc(F)cc2)CC1

row,EC50 [µM],SMILES
1,1.12,O=C(CCc1ccccc1)c1cccc(OC[C@H](O)CN2CCN(c3ccc(F)cc3)CC2)c1
2,0.912,CC(C)N(C[C@@H](O)COc1ccc(C(=O)CCc2ccccc2)cc1)C(C)C
3,1.74,CC(C)N(C[C@@H](O)COc1ccccc1[C@H](O)CCc1ccccc1)C(C)C
4,0.661,CO[C@H](CCc1ccccc1)c1ccccc1OC[C@H](O)CN(C(C)C)C(C)C
5,0.174,O=C(CCc1cccc2ccccc12)c1ccccc1OC[C@H](O)CN1CCCCC1
6,0.794,O=C(CCc1ccccc1)c1ccccc1OC[C@H](O)CNCC(c1ccccc1)c1ccccc1
7,10.5,O=C(CCc1ccccc1)c1ccccc1OC[C@H](O)CNC(c1ccccc1)c1ccccc1
8,0.724,O=C(CCc1cccc2ccccc12)c1ccccc1OC[C@H](O)CNCCC(c1ccccc1)c1ccccc1
9,0.759,CO[C@H](CCc1ccccc1)c1ccccc1OC[C@H](O)CNCCC(c1ccccc1)c1ccccc1
10,9.55,O[C@@H](COc1ccccc1[C@H](O)CCc1ccccc1)CN1CCOCC1
11,1.82,CO[C@H](CCc1ccccc1)c1ccccc1OC[C@H](O)CN1CCOCC1
12,0.11,CCCNC[C@@H](O)COc1ccc(OCc2ccccc2)cc1C(=O)CCc1ccccc1
13,0.174,O=C(CCc1ccccc1)c1cc(OCc2ccccc2)ccc1OC[C@H](O)CN1CCCCC1
14,1.74,O=C(CCc1ccccc1)c1cc(O)ccc1OC[C@H](O)CN1CCCCC1
15,0.724,O=C(CCc1ccccc1)c1ccccc1OC[C@H](O)CNCCC(c1ccccc1)c1ccccc1
16,6.46,O=C(CCc1ccccc1)c1ccccc1OC[C@H](O)CNc1ccccc1
17,0.339,O=C(CCc1ccccc1)c1ccccc1OC[C@H](O)CNC1CCCCC1
18,1.05,CC(C)N(C[C@@H](O)COc1ccc(O)cc1C(=O)CCc1ccccc1)C(C)C
19,0.0813,CC(C)N(C[C@@H](O)COc1ccc(OCc2ccccc2)cc1C(=O)CCc1ccccc1)C(C)C
20,0.115,O=C(CCc1ccccc1)c1cc(OCc2ccccc2)ccc1OC[C@H](O)CN1CCN(Cc2ccccc2)CC1
21,0.525,O=C(CCc1ccccc1)c1cc(O)ccc1OC[C@H](O)CN1CCN(Cc2ccccc2)CC1
22,0.457,CC(C)O[C@H](CCc1ccccc1)c1ccccc1OC[C@H](O)CN1CCCCC1
23,309,CN[C@H]1c2cc(C#N)ccc2OC(C)(C)[C@@H]1O
24,35.5,CC1(C)Oc2ccc(C#N)cc2[C@H](NCc2ccccc2)[C@H]1O

row,SMILES,EC50 [µM]
1,CC(C)[C@@H](CCl)N(C)[C@@H]1C2C=C(C#N)C=CC2OC(C)(C)[C@H]1O (stereo not given in full),2.24
2,CC(C)[C@@H](CCl)N(C)[C@@H]1c2cc(C#N)ccc2OC(C)(C)[C@H]1O,35.5
3,CC(C)[C@@H](CCl)N(C)[C@H]1c2cc(C#N)ccc2OC(C)(C)[C@@H]1O,44.7
4,O=C(CCc1ccccc1)c1ccccc1OC[C@H](O)CN1CCC(O)(c2ccccc2)CC1,0.0575
